Reference: ChEMBL document CHEMBL1201862, “PubChem BioAssay data set” (2004)
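Interpolation was linear, between the two tested concentrations surrounding the appropriate level; five concentrations were tested over 48 hours in 96-well plates. GI50 marks 50% less growth.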 Calls of active or inactive are those of the source. Rule as the data show it: active = GI50 up to about 1.1 µM and inactive = higher.

How the values were obtained:
Test in all cases: NCI tumour cell line growth inhibition, 48 h
786-0 = tested on: 786-0
OVCAR-5 = tested on: OVCAR-5
NCI-H522 = tested on: NCI-H522
COLO 205 = tested on: COLO 205
SK-MEL-5 = tested on: SK-MEL-5
NCI-H23 = tested on: NCI-H23
EKVX = tested on: EKVX
UO-31 = tested on: UO-31
HCC 2998 = tested on: HCC 2998
IGROV-1 = tested on: IGROV-1
A549 = tested on: A549
M14 = tested on: M14
Malme-3M = tested on: Malme-3M
MCF7 = tested on: MCF7
HOP-62 = tested on: HOP-62
SF-295 = tested on: SF-295
CAKI-1 = tested on: CAKI-1
BT-549 = tested on: BT-549
CCRF-CEM = tested on: CCRF-CEM
MDA-MB-435 = tested on: MDA-MB-435

SMILES	GI50 (786-0)	GI50 (OVCAR-5)	GI50 (NCI-H522)	GI50 (COLO 205)	GI50 (SK-MEL-5)	GI50 (NCI-H23)	GI50 (EKVX)	GI50 (UO-31)	GI50 (HCC 2998)	GI50 (IGROV-1)	GI50 (A549)	GI50 (M14)	GI50 (Malme-3M)	GI50 (MCF7)	GI50 (HOP-62)	GI50 (SF-295)	GI50 (CAKI-1)	GI50 (BT-549)	GI50 (CCRF-CEM)	GI50 (MDA-MB-435)
CC(C)(C)c1ccc(/C=N/NC(=O)CSCC(=O)N/N=C/c2ccc(C(C)(C)C)cc2)cc1	1.95 µM (inactive)	3.03 µM (inactive)	4.47 µM (inactive)	1.17 µM (inactive)	1.87 µM (inactive)	2.5 µM (inactive)	2.65 µM (inactive)	3.71 µM (inactive)	2.73 µM (inactive)	0.64 µM (active)	2.86 µM (inactive)	1.57 µM (inactive)	9.1 µM (inactive)	2.28 µM (inactive)	2.96 µM (inactive)					
NC(=O)c1cccc(OCC(O)CO)c1 (stereo not given)	> 100 µM (inactive)	> 100 µM (inactive)	> 100 µM (inactive)	> 100 µM (inactive)	> 100 µM (inactive)	> 100 µM (inactive)	> 100 µM (inactive)	> 100 µM (inactive)	> 100 µM (inactive)	> 100 µM (inactive)	> 100 µM (inactive)	> 100 µM (inactive)		> 100 µM (inactive)	> 100 µM (inactive)	> 100 µM (inactive)	> 100 µM (inactive)	> 100 µM (inactive)	> 100 µM (inactive)	
CC(C)=Cc1cc(C)c2c(O)cc(C)c3c2c1C(C)=C(O)C3=O	25.8 µM (inactive)	28.7 µM (inactive)	18.3 µM (inactive)	13 µM (inactive)	17.1 µM (inactive)	23.4 µM (inactive)		32.7 µM (inactive)		27.5 µM (inactive)	24.8 µM (inactive)	22.4 µM (inactive)		24.3 µM (inactive)	20.7 µM (inactive)	22.2 µM (inactive)	27 µM (inactive)		< 0.01 µM (active)	26.5 µM (inactive)
CN(C)CCNc1nc2c(c(=O)n(C)c(=O)n2C)n1C	> 100 µM (inactive)	> 100 µM (inactive)	> 100 µM (inactive)	> 100 µM (inactive)	> 100 µM (inactive)	> 100 µM (inactive)	> 100 µM (inactive)	> 100 µM (inactive)		> 100 µM (inactive)	> 100 µM (inactive)	> 100 µM (inactive)	> 100 µM (inactive)	> 100 µM (inactive)	> 100 µM (inactive)	> 100 µM (inactive)	> 100 µM (inactive)	> 100 µM (inactive)	> 100 µM (inactive)	> 100 µM (inactive)
NC(=S)Nc1c(S(N)(=O)=O)cc(S(N)(=O)=O)c(Cl)c1Cl	> 100 µM (inactive)	> 100 µM (inactive)	> 100 µM (inactive)	> 100 µM (inactive)	> 100 µM (inactive)	> 100 µM (inactive)	> 100 µM (inactive)	> 100 µM (inactive)		> 100 µM (inactive)	> 100 µM (inactive)	> 100 µM (inactive)	> 100 µM (inactive)	> 100 µM (inactive)	> 100 µM (inactive)	> 100 µM (inactive)	> 100 µM (inactive)	> 100 µM (inactive)	> 100 µM (inactive)	> 100 µM (inactive)
O=C(O)C1C2C=CC(O2)C1C(=O)NCc1cccnc1 (stereo not given)	> 100 µM (inactive)	> 100 µM (inactive)	> 100 µM (inactive)	> 100 µM (inactive)	> 100 µM (inactive)	> 100 µM (inactive)	> 100 µM (inactive)	> 100 µM (inactive)		> 100 µM (inactive)	> 100 µM (inactive)	> 100 µM (inactive)	> 100 µM (inactive)	> 100 µM (inactive)	> 100 µM (inactive)	> 100 µM (inactive)	> 100 µM (inactive)	> 100 µM (inactive)	> 100 µM (inactive)	> 100 µM (inactive)
CNc1cc(N)ccc1C(=O)N1CCC[C@H]1CO	> 100 µM (inactive)	> 100 µM (inactive)	> 100 µM (inactive)				> 100 µM (inactive)	> 100 µM (inactive)		> 100 µM (inactive)	> 100 µM (inactive)	> 100 µM (inactive)		> 100 µM (inactive)	> 100 µM (inactive)	> 100 µM (inactive)				> 100 µM (inactive)
O=C(O)C1CCCCC1c1c2ccc(=O)c(O)c-2oc2c(O)c(O)ccc12 (stereo not given)	19.3 µM (inactive)	> 100 µM (inactive)	14.5 µM (inactive)	> 100 µM (inactive)	25.5 µM (inactive)		38.1 µM (inactive)	44.4 µM (inactive)		26.2 µM (inactive)	13 µM (inactive)	64.7 µM (inactive)	95.7 µM (inactive)	14.2 µM (inactive)	31.6 µM (inactive)	23.7 µM (inactive)	65.6 µM (inactive)		0.18 µM (active)	16.7 µM (inactive)
